# Reference: publication PMC5614982, “Impact of Gastric H^+/K^+-ATPase rs2733743 on the Intragastric pH-Values of Dexlansoprazole Injection in Chinese Subjects” (Frontiers in Pharmacology, 2017)
# Marks after values point to notes of the source that are not given here.
# Test system: intragastric pH
# Assay: 24-h intragastric pH monitoring after single intravenous dexlansoprazole in healthy Chinese subjects
# Format: in vivo, human
# Conditions: 30 mg iv
# Method: Dexlansoprazole injection (30 mg per vial) used in the PK and PD study was manufactured by Nanjing Yoko Pharma Co., Ltd. (Nanjing, China). Subjects received an intravenous infusion of 20 or 30 mg dexlansoprazole injection in sterile saline solution (100 mL/h, 60 min). The study drug was administrated with an infusing pump (SA213, Lifepum, Beijing, China) and given through an intravenous catheter in the antecubital vein opposite to the one from which blood samples were taken.
# An ambulatory pH recorder (Orion II, MMS, USA) with a disposable pH catheter (VersaFlex, MMS, USA) was used to monitor intragastric pH. The electrode was placed in water for at least 10 min and then calibrated using standard buffer solutions (pH 1.07 and 7.01) before intubation. Both calibration and intubation processes were conducted under the guidance of MMS Virtual Instructor Program. The catheter, trans nasally placed 10 cm under the lower esophageal sphincter, was identified by a sharp decrease in pH (Wang et al., [2010], [2011]). Subjects were intubated on baseline and the day of dosing at about 7:30 a.m., and the intragastric pH data were recorded continuously for 24 h from 8:00 a.m. Intragastric pH was sampled every second, and the data were stored in a MMS Database program (MMS, USA). The PD parameters including Median (pH), Mean (pH), TpH≥3 (%), TpH≥4 (%), TpH≥6 (%), TpH≥6, and AUC^pH−t were analyzed by the MMS Database program.
# Median (pH) and mean (pH) were well-investigated in most studies, and the percentage time of pH ≥ 4 (or pH ≥ 4 holding time ratio) was the benchmark for predicting clinical efficacy of PPIs in treating acid-related diseases (Metz et al., [2009]). Novel parameter TpH≥6 (time to first gastric pH ≥ 6, min) and AUCτ 1-τ 2pH-t (area under pH-time curve from τ1 to τ2, pH·s) were defined to evaluate the velocity and extent of pharmacodynamics with more accuracy. All parameters were calculated and compared according to time periods of 0–24, 0–4, 4–10, 10–14, and 14–24 h post dosing.
# The parameter AUCτ 1-τ 2pH-t was calculated as follows:
# Where t represented the time duration measured by seconds, AUCτ 1-τ 210-t was the area between the pH line = 10 and the pH-time curve, which was generated by the MMS software.
# Baseline-adjusted PD parameters were calculated as follows: for example, ΔAUC^pH−t = AUC^pH−t − AUC^pH−tbaseline, ΔMean (pH) = Mean (pH) − Mean (pH)^baseline, and ΔMedian (pH) = Median (pH) − Median (pH)^baseline.
# [1] = CYP2C19 EMs, H+/K+-ATPase WT (n = 6), 0–4 h
# [2] = CYP2C19 EMs, H+/K+-ATPase WT (n = 6), 0–24 h
# [3] = CYP2C19 EMs, H+/K+-ATPase WT (n = 6), 14–24 h
# [4] = H+/K+-ATPase Het (n = 10), 0–4 h
compound,measurement,setting,value
Cc1c(OCC(F)(F)F)ccnc1C[S@@+]([O-])c1nc2ccccc2[nH]1 [dexlansoprazole],Mean (pH),[1],6.1 ± 0.5 pH
same,Median (pH),[1],6.9 ± 0.5 pH
same,TpH≥3(%),[1],80.8 ± 8.4%
same,TpH≥4(%),[1],76.4 ± 9.4%
same,TpH≥6(%),[1],66.9 ± 14.8%
same,ΔMean (pH),[1],3.4 ± 0.7 pH
same,ΔMedian (pH),[1],4.5 ± 0.7^b pH
same,ΔTpH≥3(%),[1],51.7 ± 34.6%
same,ΔTpH≥4 (%),[1],58.6 ± 15.0%
same,ΔTpH≥6(%),[1],60.9 ± 12.6%
same,Mean (pH),[2],5.6 ± 1.1 pH
same,Median (pH),[2],5.8 ± 1.4 pH
same,TpH≥3(%),[2],79.8 ± 16.2%
same,TpH≥4(%),[2],73.1 ± 20.0%
same,TpH≥6(%),[2],53.5 ± 23.6%
same,ΔMean (pH),[2],2.4 ± 0.8^c pH
same,ΔMedian (pH),[2],3.2 ± 1.0 pH
same,ΔTpH≥3(%),[2],35.3 ± 10.3^c %
same,ΔTpH≥4 (%),[2],41.0 ± 16.6^c %
same,ΔTpH≥6(%),[2],43.2 ± 18.2%
same,Mean (pH),[3],4.8 ± 1.8 pH
same,Median (pH),[3],4.3 ± 1.7 pH
same,TpH≥3(%),[3],62.4 ± 35.6%
same,TpH≥4(%),[3],52.1 ± 41.3%
same,TpH≥6(%),[3],34.4 ± 28.0%
same,ΔMean (pH),[3],1.6 ± 0.9^c pH
same,ΔMedian (pH),[3],2.3 ± 1.7 pH
same,ΔTpH≥3(%),[3],38.5 ± 26.5^c %
same,ΔTpH≥4 (%),[3],29.5 ± 29.9%
same,ΔTpH≥6(%),[3],14.1 ± 12.6^c %
same,Mean (pH),"CYP2C19 IM (n = 10), 0–4 h",5.6 ± 2.2 pH
same,Median (pH),"CYP2C19 IM (n = 10), 0–4 h",6.2 ± 2.8 pH
same,TpH≥3(%),"CYP2C19 IM (n = 10), 0–4 h",66.9 ± 33.4%
same,TpH≥4(%),"CYP2C19 IM (n = 10), 0–4 h",63.6 ± 36.2%
same,TpH≥6(%),"CYP2C19 IM (n = 10), 0–4 h",56.6 ± 36.6%
same,ΔMean (pH),"CYP2C19 IM (n = 10), 0–4 h",3.3 ± 1.7 pH
same,ΔMedian (pH),"CYP2C19 IM (n = 10), 0–4 h",4.3 ± 2.5 pH
same,ΔTpH≥3(%),"CYP2C19 IM (n = 10), 0–4 h",56.9 ± 27.1%
same,ΔTpH≥4 (%),"CYP2C19 IM (n = 10), 0–4 h",56.2 ± 31.5%
same,ΔTpH≥6(%),"CYP2C19 IM (n = 10), 0–4 h",51.3 ± 33.5%
same,Mean (pH),"CYP2C19 IM (n = 10), 0–24 h",6.6 ± 0.9 pH
same,Median (pH),"CYP2C19 IM (n = 10), 0–24 h",7.0 ± 0.8 pH
same,TpH≥3(%),"CYP2C19 IM (n = 10), 0–24 h",89.6 ± 9.2%
same,TpH≥4(%),"CYP2C19 IM (n = 10), 0–24 h",85.7 ± 10.6%
same,TpH≥6(%),"CYP2C19 IM (n = 10), 0–24 h",67.8 ± 13.4%
same,ΔMean (pH),"CYP2C19 IM (n = 10), 0–24 h",3.7 ± 0.6 pH
same,ΔMedian (pH),"CYP2C19 IM (n = 10), 0–24 h",4.9 ± 0.8 pH
same,ΔTpH≥3(%),"CYP2C19 IM (n = 10), 0–24 h",65.3 ± 6.2%
same,ΔTpH≥4 (%),"CYP2C19 IM (n = 10), 0–24 h",70.0 ± 8.3%
same,ΔTpH≥6(%),"CYP2C19 IM (n = 10), 0–24 h",56.7 ± 6.4%
same,Mean (pH),"CYP2C19 IM (n = 10), 14–24 h",6.1 ± 0.9 pH
same,Median (pH),"CYP2C19 IM (n = 10), 14–24 h",6.2 ± 1.2 pH
same,TpH≥3(%),"CYP2C19 IM (n = 10), 14–24 h",88.9 ± 8.9%
same,TpH≥4(%),"CYP2C19 IM (n = 10), 14–24 h",80.9 ± 12.6%
same,TpH≥6(%),"CYP2C19 IM (n = 10), 14–24 h",50.7 ± 13.6%
same,ΔMean (pH),"CYP2C19 IM (n = 10), 14–24 h",2.7 ± 0.9 pH
same,ΔMedian (pH),"CYP2C19 IM (n = 10), 14–24 h",3.7 ± 0.9 pH
same,ΔTpH≥3(%),"CYP2C19 IM (n = 10), 14–24 h",60.8 ± 19.5%
same,ΔTpH≥4 (%),"CYP2C19 IM (n = 10), 14–24 h",55.6 ± 17.3%
same,ΔTpH≥6(%),"CYP2C19 IM (n = 10), 14–24 h",27.8 ± 14.7^c %
same,Mean (pH),"CYP2C19 PM (n = 7), 0–4 h",5.2 ± 1.1 pH
same,Median (pH),"CYP2C19 PM (n = 7), 0–4 h",5.9 ± 1.8 pH
same,TpH≥3(%),"CYP2C19 PM (n = 7), 0–4 h",73.7 ± 10.5%
same,TpH≥4(%),"CYP2C19 PM (n = 7), 0–4 h",64.8 ± 15.2%
same,TpH≥6(%),"CYP2C19 PM (n = 7), 0–4 h",47.7 ± 24.1%
same,ΔMean (pH),"CYP2C19 PM (n = 7), 0–4 h",3.5 ± 0.9 pH
same,ΔMedian (pH),"CYP2C19 PM (n = 7), 0–4 h",4.2 ± 1.8 pH
same,ΔTpH≥3(%),"CYP2C19 PM (n = 7), 0–4 h",69.8 ± 9.5%
same,ΔTpH≥4 (%),"CYP2C19 PM (n = 7), 0–4 h",63.2 ± 13.7%
same,ΔTpH≥6(%),"CYP2C19 PM (n = 7), 0–4 h",47.3 ± 23.7%
same,Mean (pH),"CYP2C19 PM (n = 7), 0–24 h",6.5 ± 1.1 pH
same,Median (pH),"CYP2C19 PM (n = 7), 0–24 h",6.7 ± 1.2 pH
same,TpH≥3(%),"CYP2C19 PM (n = 7), 0–24 h",89.0 ± 13.3%
same,TpH≥4(%),"CYP2C19 PM (n = 7), 0–24 h",85.0 ± 16.4%
same,TpH≥6(%),"CYP2C19 PM (n = 7), 0–24 h",72.2 ± 19.8%
same,ΔMean (pH),"CYP2C19 PM (n = 7), 0–24 h",4.1 ± 1.1^a pH
same,ΔMedian (pH),"CYP2C19 PM (n = 7), 0–24 h",4.8 ± 1.2 pH
same,ΔTpH≥3(%),"CYP2C19 PM (n = 7), 0–24 h",68.6 ± 15.3^a %
same,ΔTpH≥4 (%),"CYP2C19 PM (n = 7), 0–24 h",74.6 ± 16.6^a %
same,ΔTpH≥6(%),"CYP2C19 PM (n = 7), 0–24 h",68.8 ± 17.9^a %
same,Mean (pH),"CYP2C19 PM (n = 7), 14–24 h",6.1 ± 1.4 pH
same,Median (pH),"CYP2C19 PM (n = 7), 14–24 h",5.9 ± 2.0 pH
same,TpH≥3(%),"CYP2C19 PM (n = 7), 14–24 h",87.3 ± 22.7%
same,TpH≥4(%),"CYP2C19 PM (n = 7), 14–24 h",82.9 ± 26.0%
same,TpH≥6(%),"CYP2C19 PM (n = 7), 14–24 h",64.4 ± 25.6^a %
same,ΔMean (pH),"CYP2C19 PM (n = 7), 14–24 h",3.8 ± 1.3^a pH
same,ΔMedian (pH),"CYP2C19 PM (n = 7), 14–24 h",4.1 ± 1.9^a pH
same,ΔTpH≥3(%),"CYP2C19 PM (n = 7), 14–24 h",76.9 ± 20.0^a %
same,ΔTpH≥4 (%),"CYP2C19 PM (n = 7), 14–24 h",75.9 ± 22.4^a %
same,ΔTpH≥6(%),"CYP2C19 PM (n = 7), 14–24 h","59.0 ± 24.6^a^,^b %"
same,Mean (pH),[4],5.3 ± 2.0 pH
same,Median (pH),[4],5.5 ± 2.5 pH
same,TpH≥3(%),[4],70.6 ± 25.1%
same,TpH≥4(%),[4],64.8 ± 28.6%
same,TpH≥6(%),[4],50.5 ± 38.4%
same,ΔMean (pH),[4],3.0 ± 1.2 pH
